Measured values from patent US5792775A (priority 1996, dated 1998).
Where two headings read alike, the source gives them in different places.

What was measured:
[1] = biological target: norepinephrine transporter (NET) (Rattus norvegicus, UniProt Q63380); test: biochemical; assay type: binding; conditions: for inhibition at 10 µM: read-out: NET (% I@10 μM)
[2] = tested on: norepinephrine transporter (NET); test: biochemical; assay type: binding; conditions: DAT vs. NET
[3] = biological target: serotonin transporter (5HTT) (Rattus norvegicus, UniProt P31652); test: Serotonin transporter binding ([^3 H]citalopram), NOVASCREEN; conditions: for inhibition at 10 µM: read-out: 5HTT (% I@10 μM)
serotonin transporter (5HTT), sequence (P31652 whole entry): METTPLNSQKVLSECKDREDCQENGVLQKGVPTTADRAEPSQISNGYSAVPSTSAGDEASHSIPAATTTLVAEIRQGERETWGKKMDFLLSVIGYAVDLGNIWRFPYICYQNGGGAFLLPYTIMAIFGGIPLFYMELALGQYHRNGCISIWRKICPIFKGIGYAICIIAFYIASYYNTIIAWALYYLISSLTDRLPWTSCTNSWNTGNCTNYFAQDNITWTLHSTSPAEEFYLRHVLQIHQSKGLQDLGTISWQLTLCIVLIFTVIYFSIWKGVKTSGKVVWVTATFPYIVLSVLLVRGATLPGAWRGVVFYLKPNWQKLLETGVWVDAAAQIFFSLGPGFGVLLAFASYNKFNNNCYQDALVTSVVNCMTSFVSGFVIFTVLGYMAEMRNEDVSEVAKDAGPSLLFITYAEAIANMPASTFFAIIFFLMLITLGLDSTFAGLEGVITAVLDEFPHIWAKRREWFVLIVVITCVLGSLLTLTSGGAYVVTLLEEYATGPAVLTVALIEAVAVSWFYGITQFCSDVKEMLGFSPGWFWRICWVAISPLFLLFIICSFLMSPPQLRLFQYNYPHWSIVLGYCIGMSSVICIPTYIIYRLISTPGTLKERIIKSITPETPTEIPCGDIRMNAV
Excerpt: (§1) Serotonin (5-HTT), norepinephrine transporter (NET) and muscarinic m1 and m2 receptor binding data were provided by NOVASCREEN.

[4] = tested on: locomotor activity in mice; test: Locomotor (ambulatory) activity; assay type: in vivo, Swiss Webster mice; conditions: i.p., FIGS. 5-8
Excerpt: Ambulatory activity of Male Swiss Webster mice (Taconic Farms) were studied in 40 cm^3 clear acrylic chambers. The acrylic chambers were placed inside monitors (Omnitech Electronics, Columbus, Ohio) that were equipped with light sensitive detectors, spaced 2.5 cm apart along two perpendicular walls. Mounted on the opposing walls were infrared light sources that were directed at the detectors. One count of horizontal activity was registered each time the subject interrupted two successive beams. Repetitive interruptions of the same beam due to behaviors, such as head bobbing or grooming, were not counted. Mice were injected and immediately placed in the apparatus for 60 min. Injections were administered i.p. in volumes of 1 mL/ 100 g. Each dose was studied in eight mice, and mice were used only once.
Horizontal activity counts are shown for the first 30 min of the session in which the maximal stimulation of activity was obtained. Each dose-effect curve was analyzed using standard analysis of variance (ANOVA) and post-hoc testing determine significance of effects at individual doses.

[5] = animal models, literature; cited from earlier work
[6] = biological target: T1, dopamine transporter (DAT) (Rattus norvegicus, UniProt P23977); conditions: read-out: DAT Ki, nM (% error); cited from earlier work
T1 construct: brains removed to an ice-cooled dish for dissection of the caudate putamen; from tissue; host or cells: rat caudate putamen, washed membranes of male Sprague-Dawley rats (Taconic)
T1 sequence (P23977 whole entry): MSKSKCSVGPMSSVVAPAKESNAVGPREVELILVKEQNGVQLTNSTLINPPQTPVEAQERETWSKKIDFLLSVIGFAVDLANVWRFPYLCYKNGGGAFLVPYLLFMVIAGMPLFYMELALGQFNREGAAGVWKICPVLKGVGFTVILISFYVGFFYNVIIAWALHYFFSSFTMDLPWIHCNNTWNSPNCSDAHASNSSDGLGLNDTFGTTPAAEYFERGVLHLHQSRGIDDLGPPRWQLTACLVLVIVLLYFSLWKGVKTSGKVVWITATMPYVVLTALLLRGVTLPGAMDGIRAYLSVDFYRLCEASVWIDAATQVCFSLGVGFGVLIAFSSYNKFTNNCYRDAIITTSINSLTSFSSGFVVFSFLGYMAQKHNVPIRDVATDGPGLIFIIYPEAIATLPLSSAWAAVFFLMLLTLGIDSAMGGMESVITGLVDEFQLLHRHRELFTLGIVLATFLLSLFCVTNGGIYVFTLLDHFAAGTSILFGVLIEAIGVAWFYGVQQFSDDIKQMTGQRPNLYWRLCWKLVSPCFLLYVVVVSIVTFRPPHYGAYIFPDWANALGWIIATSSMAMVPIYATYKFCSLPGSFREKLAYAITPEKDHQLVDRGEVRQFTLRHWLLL

[7] = tested on: dopamine uptake, rat caudate putamen; assay type: biochemical; conditions: Table V; rat caudate putamen; read-out: [^3 H]DA Uptake Inhibition IC50
muscarinic m2 receptors = biological target: T2, muscarinic m2 receptors (Rattus norvegicus, UniProt P10980); test: Muscarinic m2 receptor binding ([^3 H]AFDX 384), NOVASCREEN; conditions: Table III
T2 sequence (P10980 1-466): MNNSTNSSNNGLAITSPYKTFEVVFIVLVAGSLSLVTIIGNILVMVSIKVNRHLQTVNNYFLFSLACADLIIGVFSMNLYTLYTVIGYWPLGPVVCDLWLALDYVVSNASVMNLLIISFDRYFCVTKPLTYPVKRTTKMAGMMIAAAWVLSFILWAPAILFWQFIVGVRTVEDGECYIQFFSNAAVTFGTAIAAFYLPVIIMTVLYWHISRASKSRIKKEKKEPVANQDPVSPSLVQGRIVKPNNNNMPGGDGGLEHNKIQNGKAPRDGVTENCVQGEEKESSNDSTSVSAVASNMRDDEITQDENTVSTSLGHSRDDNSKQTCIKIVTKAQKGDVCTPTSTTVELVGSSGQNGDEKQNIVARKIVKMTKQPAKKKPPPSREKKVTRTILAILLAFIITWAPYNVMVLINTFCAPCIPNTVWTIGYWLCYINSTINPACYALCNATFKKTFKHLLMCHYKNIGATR
Excerpt: as §1

[8] = biological target: T1, dopamine transporter (DAT); test: Displacement of [^3 H]WIN 35,428 binding (Dopamine Transporter Binding Assay); conditions: Table III; displacement of [^3 H]WIN 35,428, rat caudate putamen; % error in parentheses
muscarinic m1 receptors = biological target: T3, muscarinic m1 receptors (Rattus norvegicus, UniProt P08482); test: biochemical; assay type: binding; conditions: Table III; read-out: m1, Ki
T3 sequence (P08482 1-460): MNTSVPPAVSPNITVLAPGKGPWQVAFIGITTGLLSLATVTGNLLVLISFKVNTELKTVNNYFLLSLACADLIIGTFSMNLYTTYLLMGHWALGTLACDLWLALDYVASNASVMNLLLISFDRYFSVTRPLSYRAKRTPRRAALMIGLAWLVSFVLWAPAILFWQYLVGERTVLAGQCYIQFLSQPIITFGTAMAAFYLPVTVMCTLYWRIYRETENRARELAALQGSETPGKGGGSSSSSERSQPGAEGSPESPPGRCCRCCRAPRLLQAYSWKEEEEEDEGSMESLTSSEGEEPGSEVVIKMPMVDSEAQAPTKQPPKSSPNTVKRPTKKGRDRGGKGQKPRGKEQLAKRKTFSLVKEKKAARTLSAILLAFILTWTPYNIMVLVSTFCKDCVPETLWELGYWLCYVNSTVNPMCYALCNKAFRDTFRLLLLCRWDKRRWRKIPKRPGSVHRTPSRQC

norepinephrine transporter (NET) (Rattus norvegicus, UniProt Q63380), sequence (Q63380 1-617): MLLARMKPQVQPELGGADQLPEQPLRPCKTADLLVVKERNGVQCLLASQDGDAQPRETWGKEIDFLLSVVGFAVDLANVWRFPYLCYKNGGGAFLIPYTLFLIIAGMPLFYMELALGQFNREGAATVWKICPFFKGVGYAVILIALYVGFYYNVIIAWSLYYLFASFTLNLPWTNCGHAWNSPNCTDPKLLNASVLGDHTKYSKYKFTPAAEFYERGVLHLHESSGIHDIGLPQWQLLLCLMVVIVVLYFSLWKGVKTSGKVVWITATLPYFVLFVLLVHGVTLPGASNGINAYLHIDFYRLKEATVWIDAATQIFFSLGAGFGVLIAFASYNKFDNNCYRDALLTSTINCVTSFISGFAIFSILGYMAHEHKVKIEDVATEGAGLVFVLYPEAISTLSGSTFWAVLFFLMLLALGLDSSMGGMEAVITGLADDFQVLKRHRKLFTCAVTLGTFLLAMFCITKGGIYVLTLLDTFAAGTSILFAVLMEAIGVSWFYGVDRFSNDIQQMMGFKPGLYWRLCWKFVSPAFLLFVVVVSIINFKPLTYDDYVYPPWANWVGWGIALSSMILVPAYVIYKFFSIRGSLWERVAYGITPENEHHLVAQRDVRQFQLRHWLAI

Row | SMILES | Ki [1] [µM] | inhibition at 10 µM [1] [%] | Ki ([1]; read-out: NET, Ki, Table IV) [µM] | potency at dopamine transporter as compared to norepinephrine transporter [2] [fold] | Ki ([3]; Table III, footnote d, read-out: 5HTT Ki value in nM (bracketed)) [nM] | inhibition at 10 µM [3] [%] | stimulation of locomotor activity [4] | CNS stimulatory activity [5] | Ki [6] [nM] | IC50 [7] [nM] | Ki (muscarinic m2 receptors) [nM] | Ki [8] [nM] | Ki (muscarinic m1 receptors) [nM]
1 | CN1[C@@H]2CC[C@H]1C[C@@H](OC(c1ccc(F)cc1)c1ccc(F)cc1)C2 [Compound 7c, 4',4"-difluoro-3α-(diphenylmethoxy)tropane] | > 8.5 | 30 | > 8.5 | > 700 | > 2440 | 62 |  |  |  |  |  |  | 
2 | CN1[C@@H]2CC[C@H]1C[C@@H](OC(c1ccccc1)c1ccccc1)C2 [Compound 2, 3α-(diphenylmethoxy)-1αH,5αH-tropane] |  |  |  |  |  |  | do not produce locomotor stimulant activity | exhibits CNS stimulatory activity in animal models |  |  |  |  | 
3 | CN1[C@@H]2CC[C@H]1C[C@H](OC(c1ccccc1)c1ccc(Cl)cc1)C2 (stereo partly drawn) [Compound 10, 3β-4'-Chloro-(diphenylmethoxy)tropane] |  | 27.9 |  |  |  | 37.2 |  |  | 854 | 3520 |  |  | 
4 | Cc1ccc(C(O[C@H]2C[C@H]3CC[C@@H](C2)N3C)c2ccc(C)cc2)cc1 [Compound 7o] |  | 35.1 |  |  |  | 35.5 |  |  |  | 2540 | 716 | 420 | 47.2
5 | CCc1ccc(C(O[C@H]2C[C@H]3CC[C@@H](C2)N3C)c2ccccc2)cc1 (stereo partly drawn) [Compound 7q] |  | 32.7 |  |  |  | 42.7 |  |  |  | 984 | 703 | 520 | 12.6
